# Test results reported in PubChem BioAssay AID248 (DTP/NCI, 2004).
# “And” between values parts separate entries of the source, which are not always exact repeats. Equal entries are not always repeated. Inconclusive results and toxic doses are left out.
# Test system: L1210 leukemia ip in BDF1 mice, survival T/C
# Assay: NCI In Vivo Anticancer Drug Screen. Data for tumor model L1210 Leukemia (intraperitoneal) in B6D2F1 (BDF1) mice
# Conditions: higher = longer survival
# In short: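 Transplantable tumor model; survival measured in treated vs vehicle control mice. Value = treated/control.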
# [1] = endpoint: mean survival time, dose: 50.0 mg/kg/injection, schedule: Q01DX001 (ip), vehicle: saline
# [2] = endpoint: mean survival time, dose: 100.0 mg/kg/injection, schedule: Q01DX001 (ip), vehicle: saline
# [3] = endpoint: mean survival time, dose: 50.0 mg/kg/injection, schedule: Q01DX009 (ip), vehicle: Klucel (hydroxypropylcellulose) (HPC)
# [4] = endpoint: mean survival time, dose: 100.0 mg/kg/injection, schedule: Q04DX003 (ip), vehicle: Klucel (hydroxypropylcellulose) (HPC)
# [5] = endpoint: mean survival time, dose: 200.0 mg/kg/injection, schedule: Q04DX003 (ip), vehicle: Klucel (hydroxypropylcellulose) (HPC)
# [6] = endpoint: mean survival time, dose: 100.0 mg/kg/injection, schedule: Q04DX003 (ip), vehicle: saline with Tween-80
# [7] = endpoint: mean survival time, dose: 200.0 mg/kg/injection, schedule: Q04DX003 (ip), vehicle: saline with Tween-80
# [8] = endpoint: mean survival time, dose: 400.0 mg/kg/injection, schedule: Q04DX003 (ip), vehicle: saline with Tween-80
# [9] = endpoint: mean survival time, dose: 100.0 mg/kg/injection, schedule: Q04DX003 (ip), vehicle: saline
# [10] = endpoint: mean survival time, dose: 200.0 mg/kg/injection, schedule: Q04DX003 (ip), vehicle: saline
# [11] = endpoint: mean survival time, dose: 400.0 mg/kg/injection, schedule: Q04DX003 (ip), vehicle: saline
# [12] = endpoint: mean survival time, dose: 200.0 mg/kg/injection, schedule: Q01DX001 (ip), vehicle: saline
# [13] = endpoint: mean survival time, dose: 400.0 mg/kg/injection, schedule: Q01DX001 (ip), vehicle: saline
smiles,measurement,setting,value
O=C(NP(=O)(N1CC1)N1CC1)OCc1ccccc1,T/C,"endpoint: mean survival time, dose: 3.0 mg/kg/injection, schedule: Q01DX Z (ip), vehicle: saline",118 % of control and 122 % of control
same,T/C,"endpoint: mean survival time, dose: 3.13 mg/kg/injection, schedule: Q01DX006 (iv), vehicle: clinical formulation",118 % of control
same,T/C,"endpoint: mean survival time, dose: 3.13 mg/kg/injection, schedule: Q01DX009 (ip), vehicle: saline",118 % of control and 120 % of control
same,T/C,"endpoint: mean survival time, dose: 6.0 mg/kg/injection, schedule: Q01DX Z (ip), vehicle: saline",104 % of control
same,T/C,"endpoint: mean survival time, dose: 6.25 mg/kg/injection, schedule: Q01DX006 (iv), vehicle: clinical formulation",115 % of control
same,T/C,"endpoint: mean survival time, dose: 6.25 mg/kg/injection, schedule: Q01DX009 (ip), vehicle: saline",109 % of control and 121 % of control
same,T/C,"endpoint: mean survival time, dose: 10.0 mg/kg/injection, schedule: Q01DX006 (iv), vehicle: saline",117 % of control
same,T/C,"endpoint: mean survival time, dose: 12.0 mg/kg/injection, schedule: Q01DX Z (ip), vehicle: saline",196 % of control
same,T/C,"endpoint: mean survival time, dose: 12.5 mg/kg/injection, schedule: Q01DX001 (ip), vehicle: saline",93 % of control
same,T/C,"endpoint: mean survival time, dose: 12.5 mg/kg/injection, schedule: Q01DX006 (iv), vehicle: clinical formulation",120 % of control
same,T/C,"endpoint: mean survival time, dose: 12.5 mg/kg/injection, schedule: Q01DX009 (ip), vehicle: saline",97 % of control and 114 % of control
same,T/C,"endpoint: mean survival time, dose: 20.0 mg/kg/injection, schedule: Q01DX006 (iv), vehicle: saline",117 % of control
same,T/C,"endpoint: mean survival time, dose: 25.0 mg/kg/injection, schedule: Q01DX001 (ip), vehicle: saline",93 % of control
same,T/C,"endpoint: mean survival time, dose: 25.0 mg/kg/injection, schedule: Q01DX009 (ip), vehicle: saline",101 % of control and 109 % of control
same,T/C,"endpoint: mean survival time, dose: 48.0 mg/kg/injection, schedule: Q01DX Z (ip), vehicle: saline",123 % of control
same,T/C,[1],103 % of control
same,T/C,"endpoint: mean survival time, dose: 50.0 mg/kg/injection, schedule: Q01DX006 (iv), vehicle: clinical formulation",153 % of control
same,T/C,"endpoint: mean survival time, dose: 50.0 mg/kg/injection, schedule: Q01DX009 (ip), vehicle: saline",124 % of control
same,T/C,"endpoint: mean survival time, dose: 50.0 mg/kg/injection, schedule: Q01DX010 (oral), vehicle: saline",100 % of control
same,T/C,"endpoint: mean survival time, dose: 80.0 mg/kg/injection, schedule: Q01DX006 (iv), vehicle: saline",156 % of control
same,T/C,[2],98 % of control
same,T/C,"endpoint: mean survival time, dose: 100.0 mg/kg/injection, schedule: Q01DX010 (oral), vehicle: saline",111 % of control
same,T/C,"endpoint: mean survival time, dose: 200.0 mg/kg/injection, schedule: Q01DX010 (oral), vehicle: saline",105 % of control
same,T/C,"endpoint: mean survival time, dose: 400.0 mg/kg/injection, schedule: Q01DX010 (oral), vehicle: saline",106 % of control
COc1ccc(C(=O)C(C)CC(=O)O)cc1OC (centres undefined),T/C,"endpoint: mean survival time, dose: 75.0 mg/kg/injection, schedule: Q01DX009 (ip), vehicle: Klucel (hydroxypropylcellulose) (HPC)",102 % of control
same,T/C,"endpoint: mean survival time, dose: 150.0 mg/kg/injection, schedule: Q01DX009 (ip), vehicle: Klucel (hydroxypropylcellulose) (HPC)",94 % of control
same,T/C,"endpoint: mean survival time, dose: 300.0 mg/kg/injection, schedule: Q01DX009 (ip), vehicle: Klucel (hydroxypropylcellulose) (HPC)",91 % of control
Cc1ccc[n+](Cc2ccccc2)c1,T/C,"endpoint: mean survival time, dose: 12.5 mg/kg/injection, schedule: Q04DX003 (ip), vehicle: saline",98 % of control
same,T/C,"endpoint: mean survival time, dose: 25.0 mg/kg/injection, schedule: Q04DX003 (ip), vehicle: saline",101 % of control
same,T/C,"endpoint: mean survival time, dose: 50.0 mg/kg/injection, schedule: Q04DX003 (ip), vehicle: saline",97 % of control
O=C(COc1cc(Cl)c(Cl)cc1Cl)NO,T/C,[3],98 % of control
same,T/C,"endpoint: mean survival time, dose: 100.0 mg/kg/injection, schedule: Q01DX009 (ip), vehicle: Klucel (hydroxypropylcellulose) (HPC)",104 % of control
same,T/C,[4],101 % of control
same,T/C,"endpoint: mean survival time, dose: 200.0 mg/kg/injection, schedule: Q01DX009 (ip), vehicle: Klucel (hydroxypropylcellulose) (HPC)",112 % of control
same,T/C,[5],101 % of control
CC(C)OC(=S)SCC(=O)O,T/C,[6],97 % of control
same,T/C,[7],93 % of control
same,T/C,[8],93 % of control
CC(Cl)CN(C)c1ccc2ccccc2c1 (centres undefined),T/C,"endpoint: median survival time, dose: 100.0 mg/kg/injection, schedule: Q01DX009 (ip), vehicle: Klucel (hydroxypropylcellulose) (HPC)",97 % of control
same,T/C,"endpoint: median survival time, dose: 200.0 mg/kg/injection, schedule: Q01DX009 (ip), vehicle: Klucel (hydroxypropylcellulose) (HPC)",87 % of control
COc1ccc(N=Nc2ccccc2)cc1,T/C,[4],95 % of control
same,T/C,[5],94 % of control
same,T/C,"endpoint: mean survival time, dose: 400.0 mg/kg/injection, schedule: Q04DX003 (ip), vehicle: Klucel (hydroxypropylcellulose) (HPC)",94 % of control
CN1CCC=C(CO)C1,T/C,[9],97 % of control
same,T/C,[10],107 % of control
same,T/C,[11],103 % of control
O=C1NC(=S)S/C1=C\c1ccc(N(CCCl)CCCl)cc1,T/C,[6],96 % of control
same,T/C,[7],93 % of control
same,T/C,[8],96 % of control
CN(C)CC1CCCCCC(Br)C1=O (centres undefined),T/C,"endpoint: mean survival time, dose: 75.0 mg/kg/injection, schedule: Q01DX001 (ip), vehicle: other",98 % of control
same,T/C,"endpoint: mean survival time, dose: 150.0 mg/kg/injection, schedule: Q01DX001 (ip), vehicle: other",95 % of control
same,T/C,"endpoint: mean survival time, dose: 300.0 mg/kg/injection, schedule: Q01DX001 (ip), vehicle: other",107 % of control
CCCC(N)C(O)c1ccccc1 (centres undefined),T/C,"endpoint: mean survival time, dose: 75.0 mg/kg/injection, schedule: Q01DX001 (ip), vehicle: saline",102 % of control
same,T/C,"endpoint: mean survival time, dose: 150.0 mg/kg/injection, schedule: Q01DX001 (ip), vehicle: saline",100 % of control
CCOC(=O)C1(CC)CNCC(CC)(C(=O)OCC)C1=O (centres undefined),T/C,[1],103 % of control
same,T/C,[2],104 % of control
same,T/C,[12],101 % of control
same,T/C,[13],97 % of control
CN(C)C(=S)S,T/C,[1],100 % of control
same,T/C,"endpoint: mean survival time, dose: 50.0 mg/kg/injection, schedule: Q04DX002 (ip), vehicle: Klucel (hydroxypropylcellulose) (HPC)",103 % of control
same,T/C,[2],100 % of control
same,T/C,"endpoint: mean survival time, dose: 100.0 mg/kg/injection, schedule: Q04DX002 (ip), vehicle: Klucel (hydroxypropylcellulose) (HPC)",103 % of control
same,T/C,[12],100 % of control
same,T/C,"endpoint: mean survival time, dose: 200.0 mg/kg/injection, schedule: Q04DX002 (ip), vehicle: Klucel (hydroxypropylcellulose) (HPC)",100 % of control
same,T/C,[13],100 % of control
same,T/C,"endpoint: mean survival time, dose: 400.0 mg/kg/injection, schedule: Q04DX002 (ip), vehicle: Klucel (hydroxypropylcellulose) (HPC)",96 % of control
CC(=O)OCC1OC2OC(C)(C)OC2C1NC(=O)N(C)C(C)=O (centres undefined),T/C,"endpoint: mean survival time, dose: 100.0 mg/kg/injection, schedule: Q04DX002 (ip), vehicle: saline",87 % of control
same,T/C,"endpoint: mean survival time, dose: 200.0 mg/kg/injection, schedule: Q04DX002 (ip), vehicle: saline",103 % of control
same,T/C,"endpoint: mean survival time, dose: 400.0 mg/kg/injection, schedule: Q04DX002 (ip), vehicle: saline",90 % of control
NC(=S)N/N=C/c1ccns1,T/C,"endpoint: mean survival time, dose: 100.0 mg/kg/injection, schedule: Q04DX002 (ip), vehicle: saline with Tween-80",109 % of control
same,T/C,"endpoint: mean survival time, dose: 200.0 mg/kg/injection, schedule: Q04DX002 (ip), vehicle: saline with Tween-80",97 % of control
same,T/C,"endpoint: mean survival time, dose: 400.0 mg/kg/injection, schedule: Q04DX002 (ip), vehicle: saline with Tween-80",103 % of control
COc1ccc(CN(CCO)C(C)=O)cc1,T/C,"endpoint: mean survival time, dose: 100.0 mg/kg/injection, schedule: Q01DX009 (ip), vehicle: saline",100 % of control
same,T/C,[9],112 % of control
same,T/C,"endpoint: mean survival time, dose: 200.0 mg/kg/injection, schedule: Q01DX009 (ip), vehicle: saline",105 % of control
same,T/C,[10],107 % of control
same,T/C,"endpoint: mean survival time, dose: 400.0 mg/kg/injection, schedule: Q01DX009 (ip), vehicle: saline",103 % of control
same,T/C,[11],119 % of control
CCCCCC1(C=O)C(=O)NC(=O)N1C (centres undefined),T/C,[2],102 % of control
same,T/C,[12],93 % of control
same,T/C,[13],87 % of control
CN(C)N=Nc1c(O)ccc2c1CCC1C2CCC2(C)C(=O)CCC12 (centres undefined),T/C,"endpoint: mean survival time, dose: 12.5 mg/kg/injection, schedule: Q01DX009 (ip), vehicle: Klucel (hydroxypropylcellulose) (HPC)",92 % of control
same,T/C,"endpoint: mean survival time, dose: 25.0 mg/kg/injection, schedule: Q01DX009 (ip), vehicle: Klucel (hydroxypropylcellulose) (HPC)",94 % of control
same,T/C,[3],107 % of control
CC(C)[C@]12O[C@H]1[C@@H]1O[C@@]13[C@@]1(C)CCC4=C(COC4=O)[C@@H]1C[C@@H]1O[C@@]13C2=O,T/C,"endpoint: mean survival time, dose: 79.0 micrograms/kg/injection, schedule: Q01DX009 (ip), vehicle: saline",92 % of control
same,T/C,"endpoint: mean survival time, dose: 118.0 micrograms/kg/injection, schedule: Q01DX009 (ip), vehicle: saline",105 % of control
same,T/C,"endpoint: mean survival time, dose: 178.0 micrograms/kg/injection, schedule: Q01DX009 (ip), vehicle: saline",99 % of control
same,T/C,"endpoint: mean survival time, dose: 267.0 micrograms/kg/injection, schedule: Q01DX009 (ip), vehicle: saline",101 % of control
same,T/C,"endpoint: mean survival time, dose: 400.0 micrograms/kg/injection, schedule: Q01DX009 (ip), vehicle: saline",108 % of control
